Reference: patent US8729048B2, “Methods and materials for assessing responsiveness to PARP inhibitors and platinating agents” (Mayo Foundation for Medical Education and Research, priority 2011, dated 2014)

How the values were obtained:
Format in all cases: cell-based
[1] = system: MMEJ activity in PEO4 cells; assay: Microhomology mediated end-joining assay (MMEJ), PEO4; settings: 72 hours
Source text: (§1) FIG. 11. PARP inhibition fails to induce microhomology-mediated end-joining (MMEJ). (A) Schematic of the reporter substrate used to assay for MMEJ activity. Cleavage of pDVG94 with EcoRV and AfeI creates a blunt-ended linearized substrate, with identical 6-bp ends. Direct joining by NHEJ will result in maintenance of both repeats, but MMEJ will excise one repeat, introducing a new BstXI site. PCR across recircularized substrate produces a product of 180 bp, which can be cut into 120 and 60 bp fragments if the BstXI site was created. This figure is adapted from a figure provided elsewhere (Verkaik et al., Eur. J. Immunol., 32:701-709 (2002)). (B) and (C) Agarose gel from a representative MMEJ assay. PEO1 (B, lanes 1-10) and PEO4 (C) cells were treated with increasing concentrations of ABT-888 following transfection with linearized pDVG94. The size of the initial PCR product (180 bp) as well as BstXI cleaved products (120 bp and 60 bp) are indicated. As a positive and negative control, a cell line previously documented to undergo MMEJ (Lou et al., J. Biol. Chem., 279:46359-46362 (2004)), M059J (B, lanes 11 and 12), and a MMEJ-negative line, M059J+DNA-PKcs (B, lanes 13 and 14) were used. Images were captured from one gel and cut to create two panels. […]

[2] = system: poly(ADP-ribose) polymer (pADPr) in PEO1 cells; assay: Immunoblotting for poly(ADP-ribose) polymer; settings: 72 hours, ABT-888 0-40 μM
Procedure: FIG. 2. DNA-PK is activated following PARP inhibitor exposure in PEO1 cells. (A) Western blots for poly(ADP-ribose) polymer (pADPr) and phosphorylation of DNA-PK substrates (DNA-PKcs autophosphorylation at Thr^2609 and Histone H2AX at Ser^139) in PEO1 cells following 72 hours exposure to increasing concentrations of ABT-888 (0, 0.625, 1.25, 2.5, 5, 10, 20, and 40 μM). Hsp90, total DNA-PKcs, and Histone H1 are used as loading controls. […] (C) Quantitation of cells positive for phospho-H2AX foci in PEO1 and PEO4 cells, following treatment with DMSO, 500 nM DNA-PKi, 20 μM ABT-888 (ABT), ABT-888 and DNA-PKi, 50 μM Etoposide (Etop), or 5 Gy ionizing radiation (IR). […]
Cells were washed twice with calcium- and magnesium-free Dulbecco's phosphate-buffered saline (PBS) and solubilized in 6 M guanidine hydrochloride containing 250 mM Tris-HCl, pH 8.5 at 20° C., 10 mM EDTA, 1% (v/v) 2-mercaptoethanol, and 1 mM freshly added phenylmethylsulfonyl fluoride. After preparation for electrophoresis as described elsewhere (Kaufmann et al., Blood, 89:2098-2104 (1997)), aliquots containing 50 μg of protein (determined by the bicinchoninic acid method—S10) were separated on SDS-polyacrylamide gels containing 8% (w/v) acrylamide, electrophoretically transferred to nitrocellulose, and probed with immunological reagents as described elsewhere (Kaufmann, Anal. Biochem., 296:283-286 (2001)). […]

[3] = system: MMEJ activity in PEO1 cells; assay: Microhomology mediated end-joining assay (MMEJ), PEO1; settings: 72 hours
Source text: as §1

C[C@]1(c2nc3c(C(N)=O)cccc3[nH]2)CCCN1 [ABT-888]
induction of MMEJ [1]: not detected
poly(ADP-ribosyl)ation [2]: decreased
induction of MMEJ [3]: not detected
